The record followed here is PMC5562305, “Impact of novel palmitoylated prolactin-releasing peptide analogs on metabolic changes in mice with diet-induced obesity” (PLoS ONE, 2017).

Assay [1] has as its system c-Fos. The assay is described as follows: Fos immunohistochemistry in mouse brain. Format: in vivo. The following applies: overnight fasted mice, 5 mg/kg SC, 90 min after injection, n = 4, vs saline. How it is done: Ninety minutes after injection, the mice were deeply anesthetized with sodium pentobarbital (50 mg/kg, intraperitoneally) and perfused transcardially. The brains were withdrawn, and c-Fos immunoreactivity was determined as described in [19, 20].
For the immunohistochemical study, the c-Fos rabbit monoclonal antibody (Cell Signaling Technology, #2250S) detecting total level of endogenous c-Fos protein was used in final dilution (1:2000) for 48 h (4°C).

Assay [2] can be described thus: Hormonal and biochemical (metabolic) parameters in blood of DIO mice. The class given is in vivo, C57BL/6 mice. The conditions noted are these: mean ± SEM; for Glucose: blood; for Glucose / FFA / Insulin / Leptin / T Chol (total cholesterol) / Triglycerides: 5 mg/kg SC twice a day, 2 weeks; for HOMA index: fasting glucose x fasting insulin / 22.5, 2 weeks; for FFA / Insulin / Leptin / T Chol (total cholesterol) / Triglycerides: plasma. The text has this: From 8 weeks of age, the mice were fed in house made high-fat (HF) diet to induce obesity. […] After twelve weeks of HF-diet feeding, two weeks of SC administration of lipidized PrRP analogs was initiated while the mice were kept on the HF diet. The following experimental groups were established: […] Food intake and BW were monitored daily during the dosing period. At the end of the experiment, the mice were sacrificed by decapitation. The trunk blood was collected, and the blood plasma was separated and stored at -20°C. The visceral adipose tissues (VAT) (from abdominal part), subcutaneous adipose tissues (SCAT) (all adipose tissue depots under the skin), perirenal adipose tissues, interscapular brown adipose tissues (BAT), and livers of all of the mice were dissected, weighed, flash-frozen in liquid nitrogen, and stored at -70°C for later extraction of RNA. The plasma insulin concentrations were measured using an RIA assay (Millipore, St. Charles, MI, USA), and the leptin concentrations were determined by ELISA (Millipore, St. Charles, MI, USA). The blood glucose levels were measured using a Glucocard glucometer (Arkray, Kyoto, Japan). The plasma triglyceride levels were measured using a quantitative enzymatic reaction (Sigma, St. Louis, MO, USA), and the free fatty acids (FFA) levels were determined using a colorimetric assay (Roche, Mannheim, Germany). Cholesterol was determined by colorimetric assay (Erba Lachema, Brno, Czech Republic). All measurements were performed according to the manufacturer's instructions.

Starred links: 1 amine or outer side, 2 acyl side, 3 side chain; linkers in the order of their positions; H or OH if unused. Residues, ends and D or L forms follow the SMILES beside them. Groups on a side chain read outwards from the residue. *: point of attachment. TTDA(Palmitoyl) = CCCCCCCCCCCCCCCC(=O)NCCCOCCOCCOCCCN*; γGlu = O=C(O)[C@H](CCC(=O)[*:2])N[*:1]; Palmitoyl = CCCCCCCCCCCCCCCC(=O)*; Suc = O=C(CCC(=O)[*:2])[*:1]

As to `CCCCCCCCCCCCCCCC(=O)N[C@@H](CCC(=O)NCCCC[C@H](NC(=O)[C@@H](NC(=O)[C@H](CCC(=O)O)NC(=O)[C@H](CCSC)NC(=O)[C@H](CO)NC(=O)[C@H](Cc1c[nH]cn1)NC(=O)[C@H](CCCNC(=N)N)NC(=O)[C@H](Cc1c[nH]cn1)NC(=O)[C@@H](NC(=O)[C@H](CCCNC(=N)N)NC(=O)[C@@H](N)CO)[C@@H](C)O)[C@@H](C)CC)C(=O)N[C@H](C(=O)N1CCC[C@H]1C(=O)N[C@@H](CC(=O)O)C(=O)N[C@H](C(=O)N[C@@H](CC(N)=O)C(=O)N1CCC[C@H]1C(=O)N[C@@H](C)C(=O)N[C@@H](Cc1c[nH]c2ccccc12)C(=O)N[C@@H](Cc1ccc(O)cc1)C(=O)N[C@@H](C)C(=O)N[C@@H](CO)C(=O)N[C@@H](CCCNC(=N)N)C(=O)NCC(=O)N[C@H](C(=O)N[C@@H](CCCNC(=N)N)C(=O)N1CCC[C@H]1C(=O)N[C@H](C(=O)NCC(=O)N[C@@H](CCCNC(=N)N)C(=O)N[C@@H](Cc1ccccc1)C(N)=O)C(C)C)[C@@H](C)CC)[C@@H](C)CC)[C@@H](C)O)C(=O)O` [analog 1] (H-SRTHRHSMEIK([γGlu-Palmitoyl])TPDINPAWYASRGIRPVGRF-NH2; N-terminus assumed), in assay [1], the “c-Fos immunoreactivity in Arc, PVN and DMN” value was “significant increase”. In assay [2], this compound came in with a Glucose of 7.12 ± 0.36 mmol/L, an HOMA index of 85.70 ± 0.39, an FFA of 0.54 ± 0.03 mmol/L and an Insulin of 1.57 ± 0.14 ng/mL. Besides, in assay [2], the Leptin is 22.67 ± 2.72 ng/mL, the “T Chol (total cholesterol)” value came out at 4.26 ± 0.22 mmol/L and the Triglycerides stood at 0.44 ± 0.03 mg/mL.

On to `CCCCCCCCCCCCCCCC(=O)NCCCOCCOCCOCCCNC(=O)CCC(=O)NCCCC[C@H](NC(=O)[C@@H](NC(=O)[C@H](CCC(=O)O)NC(=O)[C@H](CCSC)NC(=O)[C@H](CO)NC(=O)[C@H](Cc1c[nH]cn1)NC(=O)[C@H](CCCNC(=N)N)NC(=O)[C@H](Cc1c[nH]cn1)NC(=O)[C@@H](NC(=O)[C@H](CCCNC(=N)N)NC(=O)[C@@H](N)CO)[C@@H](C)O)[C@@H](C)CC)C(=O)N[C@H](C(=O)N1CCC[C@H]1C(=O)N[C@@H](CC(=O)O)C(=O)N[C@H](C(=O)N[C@@H](CC(N)=O)C(=O)N1CCC[C@H]1C(=O)N[C@@H](C)C(=O)N[C@@H](Cc1c[nH]c2ccccc12)C(=O)N[C@@H](Cc1ccc(O)cc1)C(=O)N[C@@H](C)C(=O)N[C@@H](CO)C(=O)N[C@@H](CCCNC(=N)N)C(=O)NCC(=O)N[C@H](C(=O)N[C@@H](CCCNC(=N)N)C(=O)N1CCC[C@H]1C(=O)N[C@H](C(=O)NCC(=O)N[C@@H](CCCNC(=N)N)C(=O)N[C@@H](Cc1ccccc1)C(N)=O)C(C)C)[C@@H](C)CC)[C@@H](C)CC)[C@@H](C)O` [analog 2] (H-SRTHRHSMEIK([Suc-TTDA(Palmitoyl)])TPDINPAWYASRGIRPVGRF-NH2; N-terminus assumed), for which, in assay [2], the Glucose amounted to 7.26 ± 0.31 mmol/L, the HOMA index turned out to be 86.27 ± 0.64, the FFA worked out at 0.52 ± 0.02 mmol/L and the Insulin worked out at 1.55 ± 0.27 ng/mL. In assay [2], the Leptin was determined as 23.64 ± 3.54 ng/mL, the “T Chol (total cholesterol)” value was 3.96 ± 0.26 mmol/L and the Triglycerides is 0.44 ± 0.04 mg/mL.

In assay [2], `CCCCCCCCCCCCCCCC(=O)NCCCOCCOCCOCCCNC(=O)CCC(=O)NCCCC[C@H](NC(=O)[C@@H](NC(=O)[C@H](CCC(=O)O)NC(=O)[C@H](CCSC)NC(=O)[C@H](CO)NC(=O)[C@H](Cc1c[nH]cn1)NC(=O)[C@H](CCCNC(=N)N)NC(=O)[C@H](Cc1c[nH]cn1)NC(=O)[C@@H](NC(=O)[C@H](CCCNC(=N)N)NC(=O)[C@H](CO)NC(=O)CCC(=O)NCCCOCCOCCOCCCNC(=O)CCCCCCCCCCCCCCC)[C@@H](C)O)[C@@H](C)CC)C(=O)N[C@H](C(=O)N1CCC[C@H]1C(=O)N[C@@H](CC(=O)O)C(=O)N[C@H](C(=O)N[C@@H](CC(N)=O)C(=O)N1CCC[C@H]1C(=O)N[C@@H](C)C(=O)N[C@@H](Cc1c[nH]c2ccccc12)C(=O)N[C@@H](Cc1ccc(O)cc1)C(=O)N[C@@H](C)C(=O)N[C@@H](CO)C(=O)N[C@@H](CCCNC(=N)N)C(=O)NCC(=O)N[C@H](C(=O)N[C@@H](CCCNC(=N)N)C(=O)N1CCC[C@H]1C(=O)N[C@H](C(=O)NCC(=O)N[C@@H](CCCNC(=N)N)C(=O)N[C@@H](Cc1ccccc1)C(N)=O)C(C)C)[C@@H](C)CC)[C@@H](C)CC)[C@@H](C)O` [analog 3] ({TTDA(Palmitoyl)-Suc}-SRTHRHSMEIK([Suc-TTDA(Palmitoyl)])TPDINPAWYASRGIRPVGRF-NH2) gave a Glucose of 7.91 ± 0.46 mmol/L, an HOMA index of 163.13 ± 1.06, an FFA of 0.62 ± 0.03 mmol/L and an Insulin of 2.69 ± 0.30 ng/mL. Also, in assay [2], the Leptin amounted to 40.30 ± 5.57 ng/mL, the “T Chol (total cholesterol)” value was 4.86 ± 0.17 mmol/L and the Triglycerides came out at 0.63 ± 0.05 mg/mL.
